{
  "source": "paper PMC6105845",
  "about": "“Nucleotide Prodrug Containing a Nonproteinogenic Amino Acid To Improve Oral Delivery of a Hepatitis C Virus Treatment” (Antimicrobial Agents and Chemotherapy, 2018)",
  "key": {"[1]": {"test_system": "chimeric HCV replicons GT2b, GT3a, GT4a, GT5a, GT6a", "test": "Chimeric replicons with NS5b of GT2b, GT3a, GT4a, GT5a, GT6a in GT1b background, transiently transfected Huh-1C cells", "assay_type": "cell-based, hepatitis C virus"}, "[2]": {"test": "Plasma pharmacokinetics in pentagastrin-pretreated portal vein-cannulated dogs", "assay_type": "in vivo, male beagle dogs", "settings": "for bioavailability / AUC(0-t) / Cmax: male, beagle; for bioavailability / Fa (fraction absorbed): oral 5 mg/kg vs 0.5 mg/kg intravenous infusion; for bioavailability: read-out: F (oral bioavailability)", "method": "Plasma and liver pharmacokinetic studies were completed as described previously ([8]). Briefly, intact Golden Syrian hamsters, Sprague-Dawley rats, and beagle dogs (intact and portal vein cannulated) were orally administered a single dose of GS2 or GS2(R+S) in solution formulations at between 5 and 50 mg/kg of body weight. Similarly, studies were completed by administering GS-6620 or its 1:1 diastereomeric mixture in solution or micronized suspension formulations at between 5 and 21.1 mg/kg. Animal doses were chosen to correspond to surface area-adjusted human doses targeted for clinical development (150 to 500 mg). In order to understand hepatic extraction (EH), fraction absorbed (Fa), and oral bioavailability (F), intravenous (i.v.) and oral (p.o.) studies were conducted with GS2 and GS-6620 in intact and portal vein-cannulated dogs. Intravenous dosing used solution formulations at 0.5 mg/kg of the respective prodrugs. Animals were housed and handled in accordance with the Guide for the Care and Use of Laboratory Animals ([23]). The protocols were reviewed and approved by the Institutional Animal Care and Use Committees (IACUC).\nPlasma samples were prepared through protein precipitation extraction by adding acetonitrile to a final concentration of 70% containing internal standard (5-iodotubericidin). Samples were dried completely under a stream of nitrogen at 40°C and reconstituted with 0.2% formic acid in water to 3 times the original volume of plasma for LC-MS/MS analysis. Liver samples were prepared by sectioning into smaller pieces and collecting into preweighed 15-ml conical tubes kept on dry ice. Ice-cold extraction buffer (0.1% KOH and 67 mM EDTA in 70% methanol containing chloro-ATP as an internal standard) was added to ∼0.5 g of each liver sample. The mixtures were promptly homogenized using an Omni-Tip TH with disposable, hard tissue homogenizer probes (Omni International). Aliquots of the homogenate were filtered by using 0.2-μm 96-well polypropylene filter plates (Varian Captiva). The filtrates were evaporated to dryness and reconstituted with an equal volume of 1 mM ammonium phosphate buffer (pH 7) prior to LC-MS/MS analysis. Plasma and liver samples were analyzed on a Sciex API-4000 (Applied Biosystems, Foster City, CA) LC-MS/MS instrument. Analytes in plasma samples were separated on a 4-μm, 150- by 2-mm Synergi Max-RP column (Phenomenex, Torrance, CA) using a mobile phase containing 0.2% formic acid and a linear gradient from 2% to 100% acetonitrile at a flow rate of 250 μl/min over 7 min. Analytes in liver samples were separated using a 50- by 2-mm by 2.5-μm Luna C18(2) HST column (Phenomenex, Torrance, CA). A multistage linear gradient from 10% (mobile phase A) to 50% acetonitrile (mobile phase B) in a mobile phase containing 3 mM ammonium formate (pH 5.0) with 10 mM dimethylhexylamine at a flow rate of 0.15 ml/min was used to elute the analytes.\nNoncompartmental pharmacokinetic parameters were calculated using WinNonlin 5.01 (Pharsight Corporation, Mountain View, CA). Equations for calculating hepatic extraction (EH; equation 2), fraction absorbed (Fa; equation 3), and oral bioavailability (F; equation 4) have been presented previously ([25]). (2) EH=AUCPO,portal vein−AUCPO,jugular vein/AUCPO,portal vein (3) Fa=F/1−EH (4) F=AUCPO,jugular vein÷DosePO/AUCIV÷DoseIV"}, "[3]": {"test_system": "HCV GT1a, GT1b and GT2a replicons", "test": "HCV replicons GT1a, GT1b, GT2a in Huh-1C cells, summary across genotypes", "assay_type": "cell-based, hepatitis C virus", "method": "GT1a, GT1b, and GT2a are authentic subgenomic replicons of the indicated strain. Creation of these HCV replicons was reported previously ([7]).\nRNA was transcribed in vitro using a MEGAscript […] kit (Ambion, Austin, TX) and transfected into Huh-Lunet and −1C cells using published methods ([21], [22]).\nThe EC50s, defined as the concentration at which there was a measured 50% decrease in HCV replicon level, were determined in replicon assay as previously described ([24]). Briefly, replicon cells were seeded into 96-well plates. Compounds were serially diluted in DMSO at 200× final concentrations and then added to the assay plate. Luciferase expression was quantified after 3 days of incubation using a commercial luciferase assay (Promega, Madison, WI). Data were analyzed using GraphPad Prism 6.0 (La Jolla, CA).\nX represents log of compound concentration and Y represents replicon replication as the percentage of DMSO control. EC50s were calculated as an average from at least three independent experiments."}, "[4]": {"settings": "dog, plasma (jugular vein), oral 5 mg/kg, GS2 in solution, GS-6620 in suspension of micronized material, read-out: AUC0–t jugular"}, "[5]": {"settings": "dog, plasma (jugular vein), oral 5 mg/kg, GS2 in solution, GS-6620 in suspension of micronized material, read-out: Cmax jugular"}, "[6]": {"settings": "dog, plasma (portal vein), oral 5 mg/kg, GS2 in solution, GS-6620 in suspension of micronized material, read-out: AUC0–t portal"}, "[7]": {"settings": "dog, plasma (portal vein), oral 5 mg/kg, GS2 in solution, GS-6620 in suspension of micronized material, read-out: Cmax portal"}, "[8]": {"settings": "dog, plasma, 0.5-mg/kg intravenous infusion (30 min), n = 3, read-out: AUC0–t following intravenous infusion"}},
  "note": "Where “and” joins values, the source holds several entries; their conditions need not be identical. Equal values may be shown once. Read-outs that look alike come from different tables or passages of the source.",
  "data": [
    {"smiles": "CC(C)OC(=O)C(C)(C)N[P@](=O)(OC[C@H]1O[C@@](C#N)(c2ccc3c(N)ncnn23)[C@](C)(O)[C@@H]1O)Oc1ccccc1", "note": "[GS2]", "values": [
      {"measurement": "EC50", "setting": "[1]; Hepatitis C virus, read-out: potency", "result": "91 to 158", "unit": "nM"},
      {"measurement": "relative potency to GS-6620", "setting": "[1]; chimeric replicons GT2b-GT6a, Huh-1C", "result": "≤ 2", "unit": "fold"},
      {"measurement": "Fa in dog higher than corresponding L-alanine-containing prodrug", "setting": "[2]; dog, in vivo", "result": "more than 5 fold"},
      {"measurement": "bioavailability", "setting": "[2]; dog, plasma (jugular vein)", "result": 13, "unit": "%"},
      {"measurement": "AUC(0-t)", "setting": "[2]; [4]", "result": "0.44 ± 0.09", "unit": "µM·h"},
      {"measurement": "Cmax", "setting": "[2]; [5]", "result": "430 ± 90", "unit": "nM"},
      {"measurement": "AUC(0-t)", "setting": "[2]; [6]", "result": "1.77 ± 0.26", "unit": "µM·h"},
      {"measurement": "Cmax", "setting": "[2]; [7]", "result": "1610 ± 350", "unit": "nM"},
      {"measurement": "AUC(0-t)", "setting": "[2]; [8]", "result": 0.34, "unit": "µM·h"},
      {"measurement": "EH (hepatic extraction)", "setting": "[2]; oral 5 mg/kg", "result": 75, "unit": "%"},
      {"measurement": "maximal portal concentration lower than GS-6620", "setting": "[2]; oral 5 mg/kg", "result": "approximately 2 fold"},
      {"measurement": "Fa (fraction absorbed)", "setting": "[2]", "result": "51.6% and 52%"},
      {"measurement": "potency relative to the fast-eluting isomer (more potent)", "setting": "[3]; GT1a, 1b, 2a, Huh-1C", "result": "approximately 4 fold"},
      {"measurement": "activity relative to GS-6620, average across the three genotypes", "setting": "[3]; Huh-1C cells", "result": "≤ 3", "unit": "fold"}
    ]},
    {"smiles": "CC(C)OC(=O)[C@H](C)N[P@](=O)(OC[C@H]1O[C@@](C#N)(c2ccc3c(N)ncnn23)[C@](C)(O)[C@@H]1OC(=O)C(C)C)Oc1ccccc1", "note": "[GS-6620, reference compound]", "values": [
      {"measurement": "bioavailability", "setting": "[2]; dog, plasma (jugular vein)", "result": 15, "unit": "%"},
      {"measurement": "AUC(0-t)", "setting": "[2]; [4]", "result": "0.33 ± 0.28", "unit": "µM·h"},
      {"measurement": "Cmax", "setting": "[2]; [5]", "result": "620 ± 430", "unit": "nM"},
      {"measurement": "AUC(0-t)", "setting": "[2]; [6]", "result": "1.68 ± 0.8", "unit": "µM·h"},
      {"measurement": "Cmax", "setting": "[2]; [7]", "result": "3650 ± 860", "unit": "nM"},
      {"measurement": "AUC(0-t)", "setting": "[2]; [8]", "result": 0.2, "unit": "µM·h"},
      {"measurement": "EH (hepatic extraction)", "setting": "[2]; oral 5 mg/kg", "result": 80, "unit": "%"},
      {"measurement": "Fa (fraction absorbed)", "setting": "[2]", "result": 79, "unit": "%"},
      {"measurement": "time by which plasma concentration decreased to undetectable", "setting": "[2]; oral 5 mg/kg, postdose", "result": "≤ 2", "unit": "h"}
    ]}
  ]
}
